From the supplement of paper PMC5662764
± gives the standard deviation of the averaged measurements.

Experiments:
Test in all cases: normalised growth rate inhibition (GR value) relative to DMSO control (GR (1 = untreated growth, 0 = cytostasis, <0 = cytotoxic)); higher = less growth inhibition
Settings in all cases: 72 h
[1] = system: BT20
Description: (§1)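 Breast cancer cell lines (BT-20, Hs 578T, MCF 10A, MCF7, MDA-MB-231, SK-BR-3) were plated in 384-well plates and treated 24 h later with drugs at six concentrations (0.04-10 µM). Viable cells were counted by Hoechst/dead-cell-stain imaging at 0 and 72 h. Counts were normalised to DMSO controls on the same plate to give the relative cell count and the growth-rate inhibition (GR) value; technical plate triplicates were averaged for each biological replicate.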

[2] = system: HS578T
Description: as §1

[3] = system: MCF10A
Description: as §1

[4] = system: MCF7
Description: as §1

[5] = system: MDAMB231
Description: as §1

[6] = system: SKBR3
Description: as §1

Structure (SMILES)	normalised growth rate inhibition ([1]; 0.04 µM)	normalised growth rate inhibition ([1]; 0.12 µM)	normalised growth rate inhibition ([1]; 0.37 µM)	normalised growth rate inhibition ([1]; 1.11 µM)	normalised growth rate inhibition ([1]; 3.33 µM)	normalised growth rate inhibition ([1]; 10 µM)	normalised growth rate inhibition ([2]; 0.04 µM)	normalised growth rate inhibition ([2]; 0.12 µM)	normalised growth rate inhibition ([2]; 0.37 µM)	normalised growth rate inhibition ([2]; 1.11 µM)	normalised growth rate inhibition ([2]; 3.33 µM)	normalised growth rate inhibition ([2]; 10 µM)	normalised growth rate inhibition ([3]; 0.04 µM)	normalised growth rate inhibition ([3]; 0.12 µM)	normalised growth rate inhibition ([3]; 0.37 µM)	normalised growth rate inhibition ([3]; 1.11 µM)	normalised growth rate inhibition ([3]; 3.33 µM)	normalised growth rate inhibition ([3]; 10 µM)	normalised growth rate inhibition ([4]; 0.04 µM)	normalised growth rate inhibition ([4]; 0.12 µM)	normalised growth rate inhibition ([4]; 0.37 µM)	normalised growth rate inhibition ([4]; 1.11 µM)	normalised growth rate inhibition ([4]; 3.33 µM)	normalised growth rate inhibition ([4]; 10 µM)	normalised growth rate inhibition ([5]; 0.04 µM)	normalised growth rate inhibition ([5]; 0.12 µM)	normalised growth rate inhibition ([5]; 0.37 µM)	normalised growth rate inhibition ([5]; 1.11 µM)	normalised growth rate inhibition ([5]; 3.33 µM)	normalised growth rate inhibition ([5]; 10 µM)	normalised growth rate inhibition ([6]; 0.04 µM)	normalised growth rate inhibition ([6]; 0.12 µM)	normalised growth rate inhibition ([6]; 0.37 µM)	normalised growth rate inhibition ([6]; 1.11 µM)	normalised growth rate inhibition ([6]; 3.33 µM)	normalised growth rate inhibition ([6]; 10 µM)
CNC(=O)Nc1ccc(-c2nc(N3CC4CCC(C3)O4)c3cnn(C4CCC5(CC4)OCCO5)c3n2)cc1	0.473 ± 0.17	0.269 ± 0.11	0.208 ± 0.084	0.15 ± 0.064	0.113 ± 0.075	0.0435 ± 0.086	0.268 ± 0.079	0.212 ± 0.066	0.198 ± 0.091	0.172 ± 0.096	0.177 ± 0.093	0.101 ± 0.15	0.506 ± 0.15	0.284 ± 0.064	0.224 ± 0.057	0.176 ± 0.017	0.151 ± 0.042	0.14 ± 0.026	0.16 ± 0.091	0.14 ± 0.1	0.13 ± 0.069	0.149 ± 0.1	0.0933 ± 0.1	-0.00137 ± 0.14	0.499 ± 0.16	0.369 ± 0.18	0.301 ± 0.15	0.285 ± 0.12	0.23 ± 0.12	0.0984 ± 0.14	0.0703 ± 0.093	0.000862 ± 0.13	-0.00643 ± 0.17	-0.00784 ± 0.15	-0.0626 ± 0.15	-0.0635 ± 0.14
CN1CC[C@H](c2c(O)cc(O)c3c(=O)cc(-c4ccccc4Cl)oc23)[C@H](O)C1 [alvocidib]	0.324 ± 0.32	-0.0878 ± 0.2	-0.251 ± 0.083	-0.35 ± 0.19	-0.339 ± 0.2	-0.365 ± 0.21	0.48 ± 0.23	-0.156 ± 0.1	-0.206 ± 0.082	-0.196 ± 0.11	-0.193 ± 0.098	-0.188 ± 0.11	0.197 ± 0.27	-0.2 ± 0.16	-0.288 ± 0.23	-0.281 ± 0.24	-0.281 ± 0.25	-0.263 ± 0.22	-0.0866 ± 0.19	-0.328 ± 0.037	-0.335 ± 0.068	-0.359 ± 0.057	-0.361 ± 0.077	-0.364 ± 0.07	0.184 ± 0.25	-0.239 ± 0.12	-0.273 ± 0.13	-0.273 ± 0.16	-0.282 ± 0.14	-0.287 ± 0.16	0.102 ± 0.038	-0.287 ± 0.2	-0.32 ± 0.26	-0.367 ± 0.21	-0.357 ± 0.22	-0.391 ± 0.21
CCOc1cc2ncc(C#N)c(Nc3ccc(F)c(Cl)c3)c2cc1NC(=O)/C=C/CN(C)C [pelitinib]	0.966 ± 0.066	0.877 ± 0.099	0.7676 ± 0.006	0.697 ± 0.037	0.594 ± 0.13	-0.241 ± 0.14	0.9931 ± 0.0014	0.956 ± 0.052	0.841 ± 0.042	0.79 ± 0.035	0.569 ± 0.33	-0.122 ± 0.026	0.542 ± 0.25	0.267 ± 0.27	0.115 ± 0.042	0.129 ± 0.04	0.111 ± 0.042	-0.017 ± 0.046	1.06 ± 0.061	1.03 ± 0.12	0.935 ± 0.068	0.763 ± 0.14	0.33 ± 0.14	-0.164 ± 0.085	1.05 ± 0.042	1.03 ± 0.051	0.88 ± 0.043	0.75 ± 0.11	0.318 ± 0.18	-0.143 ± 0.073	0.618 ± 0.21	0.332 ± 0.21	-0.0906 ± 0.18	-0.0946 ± 0.17	-0.052 ± 0.16	-0.227 ± 0.096
CO[C@H]1C[C@@H]2CC[C@@H](C)[C@@](O)(O2)C(=O)C(=O)N2CCCC[C@H]2C(=O)O[C@H]([C@H](C)C[C@@H]2CC[C@@H](O)[C@H](OC)C2)CC(=O)[C@H](C)/C=C(\C)[C@@H](O)[C@@H](OC)C(=O)[C@H](C)C[C@H](C)/C=C/C=C/C=C/1C [sirolimus]	0.54 ± 0.03	0.514 ± 0.062	0.522 ± 0.056	0.524 ± 0.067	0.536 ± 0.061	0.587 ± 0.043	0.629 ± 0.089	0.619 ± 0.048	0.619 ± 0.055	0.632 ± 0.072	0.621 ± 0.066	0.62 ± 0.09	0.982 ± 0.074	0.999 ± 0.069	0.995 ± 0.082	0.997 ± 0.077	1 ± 0.089	0.986 ± 0.087	0.502 ± 0.075	0.502 ± 0.07	0.486 ± 0.048	0.49 ± 0.08	0.495 ± 0.048	0.456 ± 0.096	0.802 ± 0.049	0.781 ± 0.039	0.812 ± 0.048	0.787 ± 0.042	0.784 ± 0.07	0.8 ± 0.087	0.47 ± 0.069	0.449 ± 0.056	0.405 ± 0.12	0.389 ± 0.09	0.366 ± 0.082	0.353 ± 0.1
COc1cc(C(=O)NC2CCN(C)CC2)ccc1Nc1ncc2c(n1)N(C1CCCC1)CCC(=O)N2C(C)C	0.783 ± 0.068	0.948 ± 0.1	0.933 ± 0.14	0.936 ± 0.11	0.888 ± 0.1	0.734 ± 0.15	0.972 ± 0.024	0.964 ± 0.045	0.93 ± 0.03	0.917 ± 0.0095	0.8447 ± 0.0079	0.275 ± 0.079	0.975 ± 0.04	0.979 ± 0.045	0.984 ± 0.019	0.972 ± 0.024	0.948 ± 0.029	0.758 ± 0.086	0.764 ± 0.077	0.84 ± 0.053	0.858 ± 0.07	0.807 ± 0.02	0.758 ± 0.065	0.298 ± 0.024	0.765 ± 0.047	0.884 ± 0.069	0.86 ± 0.068	0.834 ± 0.077	0.767 ± 0.093	0.308 ± 0.08	0.601 ± 0.093	0.755 ± 0.053	0.775 ± 0.079	0.758 ± 0.088	0.787 ± 0.082	0.511 ± 0.17
Cc1ccc(NC(=O)c2ccc(CN3CCN(C)CC3)cc2)cc1Nc1nccc(-c2cccnc2)n1 [imatinib]	1 ± 0.033	1.02 ± 0.075	0.99 ± 0.03	1.02 ± 0.037	0.991 ± 0.042	0.981 ± 0.057	0.997 ± 0.018	0.996 ± 0.011	1.01 ± 0.034	1.03 ± 0.041	1.05 ± 0.059	1.05 ± 0.11	1.002 ± 0.0079	1.001 ± 0.0023	0.9962 ± 0.003	1 ± 0.014	1.01 ± 0.018	0.998 ± 0.031	1.06 ± 0.084	1.08 ± 0.088	1.08 ± 0.076	1.06 ± 0.057	1.04 ± 0.075	0.9 ± 0.039	1.01 ± 0.055	0.999 ± 0.032	1.02 ± 0.04	1 ± 0.045	1.02 ± 0.028	0.915 ± 0.022	1.05 ± 0.04	1.07 ± 0.045	1.04 ± 0.061	1.08 ± 0.046	1.11 ± 0.066	0.991 ± 0.043
C[C@@H](N)c1ccc(C(=O)Nc2ccnc3[nH]ccc23)cc1	0.994 ± 0.068	1.01 ± 0.098	0.962 ± 0.084	0.895 ± 0.073	0.802 ± 0.09	0.296 ± 0.17	0.884 ± 0.015	0.821 ± 0.059	0.802 ± 0.03	0.757 ± 0.041	0.626 ± 0.054	0.0283 ± 0.12	0.9685 ± 0.0076	0.877 ± 0.069	0.888 ± 0.038	0.864 ± 0.047	0.805 ± 0.089	0.336 ± 0.18	1.06 ± 0.049	1.04 ± 0.043	1 ± 0.039	0.905 ± 0.11	0.63 ± 0.19	-0.243 ± 0.13	0.873 ± 0.12	0.849 ± 0.1	0.777 ± 0.11	0.703 ± 0.086	0.586 ± 0.062	-0.303 ± 0.14	0.839 ± 0.19	0.836 ± 0.19	0.782 ± 0.14	0.667 ± 0.18	0.522 ± 0.18	-0.122 ± 0.18
